In PubChem BioAssay AID1996:
In brackets after ≈: the same amount, converted by molar mass.

Conditions: buffer; pH 7.4; 200.0 µM

Compound	solubility kinetic
Cc1ccc(C)c(NC(=O)NC2CCCCCCC2)c1	< 0.3 µg/mL
COC(=O)c1ccccc1NC(=O)NCCc1ccccc1OC.Cl	6.3 µg/mL
COc1ccc(C(C)(C)C)cc1NC(=O)c1ccc[n+]([O-])c1	> 45.1 µg/mL
O=c1nc(Nc2ccccc2)oc2ccccc12	26.8 µg/mL (≈ 112 µM)
CCc1ccc(NC(=S)NCC2CCCN2CC)cc1 (stereo not drawn)	> 43.7 µg/mL
CCc1cc(Cl)c(OC)c(C(=O)NC[C@@H]2CCCN2CC)c1O.Cl	> 56.6 µg/mL
CC(OC(=O)c1ccccc1CCc1ccccc1)C(N)=O (stereo not drawn)	> 44.6 µg/mL
COc1cccc(OC)c1C(=O)O/N=C(\N)c1ccncc1	42.2 µg/mL (≈ 140 µM)
CN(C(=O)c1ccc(Cl)cc1)C1CCS(=O)(=O)C1 (stereo not drawn)	41.2 µg/mL (≈ 143 µM)
Cc1ccccc1-c1nc(C(=O)NCC2CCCO2)cc2c1[nH]c1ccccc12 (stereo not drawn)	3.2 µg/mL (≈ 8.3 µM)
O=C(O)CCn1c(=S)n(CCC(=O)O)c2ccccc21	> 44.1 µg/mL
O=C1Nc2ccc(Cl)cc2C12OCCCO2	3.2 µg/mL (≈ 13.4 µM)
O=C(c1ccc(Cl)cc1)N1CCN(c2ncccn2)CC1	> 45.4 µg/mL
Cc1ccc(C(=O)N2CCCCC2C(=O)O)cc1S(=O)(=O)N1CCCCC1 (stereo not drawn)	> 59.2 µg/mL
COc1ccc(NC(=O)CNc2cc(S(=O)(=O)N3CCOCC3)ccc2N2CCOCC2)c(OC)c1	4.2 µg/mL (≈ 8.07 µM)
CNCCCC1c2ccccc2C=Cc2ccccc21.Cl	> 45 µg/mL
O=C(Nc1ccc(S(=O)(=O)N2CCCCC2)cc1)c1ccco1	46.2 µg/mL (≈ 138 µM)
CC(=O)N1CCCC(C(=O)c2ccc(Oc3ccccc3)cc2)C1 (stereo not drawn)	> 48.5 µg/mL
COc1ccc(NC(=O)Nc2ccncc2)c(OC)c1	> 41 µg/mL
CCCc1c(C)nc(N2CCN(c3ccccc3OC)CC2)[nH]c1=O	2.5 µg/mL (≈ 7.3 µM)
Cc1ccc2c(CN3CC(C)CC(C)C3)cc(=O)oc2c1 (stereo not drawn)	4.3 µg/mL (≈ 15.1 µM)
Cc1cc(C)c2nc(Cl)c(Cl)nc2c1	2.7 µg/mL (≈ 11.9 µM)

Compound	solubility kinetic
CCOc1cc(C(F)(F)F)cnc1/C(N)=N/O	36.9 µg/mL (≈ 148 µM)
COc1cccc(NC(=S)N(C)C2CCN(C)CC2)c1	> 44 µg/mL
Cc1cccnc1NC(=O)Nc1ccc(Cl)cc1	0.7 µg/mL (≈ 2.67 µM)
Cc1ccsc1C(=O)OCC(=O)NCc1ccco1	41.1 µg/mL (≈ 147 µM)
CCOC(=O)c1cccc(NC(=O)c2cc3ccccc3o2)c1	0.7 µg/mL (≈ 2.26 µM)
N#Cc1ccsc1NC(=O)COC(=O)c1ccc(Br)o1	10.5 µg/mL (≈ 29.6 µM)
O=C(CN1CCCCC1)Nc1scc2c1c(=O)oc1ccccc12	< 0.4 µg/mL
O=C(/C=C/c1cccc([N+](=O)[O-])c1)Nc1ccccn1	0.7 µg/mL (≈ 2.6 µM)
COc1ccc(NC(=O)c2nc(SC)ncc2Cl)cc1	8.2 µg/mL (≈ 26.5 µM)
O=C1Nc2ccccc2S/C1=C/c1cccs1	< 0.6 µg/mL
O=C(NN1CCOCC1)c1ccco1	> 29.4 µg/mL
CN(Cc1nc(-c2ccccc2)no1)C1CCOCC1	36.7 µg/mL (≈ 134 µM)
Cc1csc(=O)n1CCC(=O)N(C)Cc1c(F)cccc1Cl	> 51.4 µg/mL
N#Cc1ccc(/C=C\c2nccc3c2[nH]c2ccccc23)cc1	1.3 µg/mL (≈ 4.4 µM)
Cc1c(Cl)cccc1NC(=S)NCCc1ccc(F)cc1	1.2 µg/mL (≈ 3.72 µM)
CCC1(CC)Cc2ccccc2-c2nc(CN(C)C)[nH]c(=O)c21	10.8 µg/mL (≈ 34.7 µM)
Cc1ccc(C(=O)NC(C)c2ccncc2)o1 (stereo not drawn)	> 34.5 µg/mL
Cn1c(Cl)c(/C=N/OC(=O)C2CC2)c2ccccc21	2.7 µg/mL (≈ 9.76 µM)
O=C(Cc1ccccc1)N/N=C/c1ccc[nH]1	> 34.1 µg/mL
COc1ccc2nc(-c3ccccn3)[nH]c2c1	24.8 µg/mL (≈ 110 µM)
C/C(=N\NC=O)c1ccncc1	> 24.5 µg/mL
Cc1ccsc1/C=C1/SC(=O)N(CC(=O)N2CCCC2)C1=O	5.9 µg/mL (≈ 17.5 µM)

Compound	solubility kinetic
NC(=S)N1CCCc2ccccc21	> 28.8 µg/mL
Cc1cccc(NC(=O)c2ccc(S(=O)(=O)N(C)c3ccccc3)cc2)n1	11.6 µg/mL (≈ 30.4 µM)
CCC(=O)N(CCC1(c2ccccc2OC)CCOC(C(C)C)C1)Cc1ccco1 (stereo not drawn)	21.4 µg/mL (≈ 51.7 µM)
O=C(Nc1ccc2c(c1)OCCO2)C1CC(c2ccc(F)cc2)=NO1 (stereo not drawn)	1.2 µg/mL (≈ 3.51 µM)
O=C(NCCc1ccc(F)cc1)c1cccc(NC(=O)c2ccccc2)c1	6 µg/mL (≈ 16.6 µM)
O=C(CNC(=O)c1ccccc1F)OCC(=O)c1c[nH]c2ccccc12	43 µg/mL (≈ 121 µM)
COc1cc(OC)c(NC(=O)Cc2cccs2)cc1Cl	32.1 µg/mL (≈ 103 µM)
O=C(Nc1ccc(Br)cc1)Nc1cnccn1	3 µg/mL (≈ 10.2 µM)
Cc1ccc([N+](=O)[O-])c(NC(=O)COC(=O)C2CC3CCCC(C2)C3=O)c1C (stereo not drawn)	> 58.3 µg/mL
CCCN1C(=O)c2ccc(C(=O)Nc3ccccc3C(=O)O)cc2C1=O	> 52.9 µg/mL
CCc1nc2ccccc2c(=O)n1-c1ccccc1OC	> 42 µg/mL
CCOC(=O)C1CCN(S(=O)(=O)c2ccccc2[N+](=O)[O-])CC1	44.1 µg/mL (≈ 129 µM)
COc1cc(NC(=O)Cc2ccccc2)nc(OC)n1	> 41 µg/mL
Cc1nc(Oc2ccccc2)c2ccsc2n1	20 µg/mL (≈ 82.5 µM)
CN1CCN(C(=S)c2cn(Cc3cccc(F)c3)c3ccccc23)CC1	28 µg/mL (≈ 76.2 µM)
O=C(CCN1CCN(CCO)CC1)Nc1cccc(Br)c1	> 53.4 µg/mL
CCc1nc2sc3c(=O)[nH]cnc3c2c2c1CSC(C)(C)C2	16.7 µg/mL (≈ 50.4 µM)
Cc1ccc(S(=O)(=O)N2CCN(C(C)CC(=O)O)CC2)cc1 (stereo not drawn)	32.9 µg/mL (≈ 101 µM)
CN(C)CCn1ccc(O)c(Cc2ccc(Cl)cc2)c1=O	44.8 µg/mL (≈ 146 µM)
O=C1NCCN1Cc1ccc(Cl)cc1	26.3 µg/mL (≈ 125 µM)
CCc1ccc(NC(=O)COC(=O)CCC2CCCC2)cc1	7.9 µg/mL (≈ 26 µM)
O=C(CSc1ccc2c(c1)OCCO2)NCc1ccccc1	44 µg/mL (≈ 140 µM)

Compound	solubility kinetic
CCc1ccccc1N1CN(Cc2ccco2)CNC1=S	> 45.2 µg/mL
COc1ccc2ccc(OCC(=O)Nc3cc(C)on3)cc2c1	12.4 µg/mL (≈ 39.7 µM)
CCS(=O)(=O)Nc1cc2c3c(c1)CCC(=O)N3CCC2	> 44.2 µg/mL
O=C(NCc1ccc(Cl)cc1)C1CCN(c2cnccn2)CC1	> 49.6 µg/mL
Cc1cnc(C(=O)NCCc2ccc(Cl)cc2)cn1	36 µg/mL (≈ 131 µM)
Br.CCn1c2c(c(=N)c3ccccc31)CCC2	> 44 µg/mL
Cc1cccc(C)c1NC(=O)C[n+]1cc(-c2ccccc2)n2c1CCC2.[Cl-]	> 57.3 µg/mL
O=C(NC(=S)N1CCOCC1)c1ccccc1Cl	> 42.7 µg/mL
Cc1ccc(C(=O)NC2CCCC2)s1	29.9 µg/mL (≈ 143 µM)
Cc1ccc2nc(N3CCOCC3)c(C=O)c(=O)n2c1	> 41 µg/mL
Cc1cccc(C)c1OCC(O)CNC(C)c1ccccc1.Cl (stereo not drawn)	> 50.4 µg/mL
CN(c1ccc(F)cc1)S(=O)(=O)c1ccc(Cl)c(C(=O)NCc2ccco2)c1	34.9 µg/mL (≈ 82.5 µM)
Cc1c(C(=O)O)cc(C(C)(C)C)n1CCSCCO	38.8 µg/mL (≈ 136 µM)
O=C(Nc1cccc(Cl)c1)Nc1ccc2nccnc2c1	1.7 µg/mL (≈ 5.69 µM)
Cc1ccc(S(=O)(=O)NC(C)CCc2ccccc2)cc1C(N)=O (stereo not drawn)	> 52 µg/mL
CCOC(=O)c1ccc(NC(=O)Nc2ncccc2C)cc1	0.6 µg/mL (≈ 2 µM)
COCCCn1c(=O)c2ccccc2n(Cc2cccc(C)c2)c1=O	42.6 µg/mL (≈ 126 µM)
COc1ccc(C(=O)Nc2ccc3ccccc3c2)c(OC)c1	< 0.7 µg/mL
Clc1ccc(CNc2ccccn2)cc1	25.8 µg/mL (≈ 118 µM)
Cc1cc(N(C)Cc2ccccc2)nc2cc(O)ccc12	30.5 µg/mL (≈ 110 µM)
COc1ccc(OC)c(NC(=O)CCCSc2ccccc2)c1	13.7 µg/mL (≈ 41.3 µM)
O=C(O)Cn1cc(C=C2C(=O)NC(=O)NC2=O)c2ccccc21	> 47 µg/mL
